Assay results reported in patent publication EP4741386A1 (Jiangsu Yahong Meditech Co., Ltd., priority 2023, dated 2025).

Experiments:
[1] = test system: MDA-MB-436; assay: CTG experiment for cell viability (CellTiter-Glo, 96-well plate, 7 days); type: cell-based; conditions: Homo sapiens, MDA-MB-436, 168 h, MDA-MB-436 cells, 7 days culture with compound
In short: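 MDA-MB-436 cells in DMEM were plated in 96-well format, treated with compounds, and cultured 7 days at 37°C. After removing the medium, cells were given PBS plus CellTiter-Glo reagent, incubated 10 min at room temperature, and luminescence was read. Curves were fitted as for the enzyme assay.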

[2] = target: T1, Recombinant human His6-USP1/His6-UAF1 complex protein (Homo sapiens, UniProt O94782); assay: In vitro inhibitory activity against USP1 (Ubiquitin Rhodamine 110 fluorescence detection, 384-well plate); type: biochemical; conditions: Ub-Rho substrate, 1 hour pre-incubation, read after 30 minutes
T1 construct: His6; purchased R&D E-568-050
In short: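 Fluorescence assay measuring inhibition of recombinant human His6-USP1/His6-UAF1 complex with Ubiquitin-Rhodamine 110 substrate. Compounds held as 50 mM stocks in 100% DMSO and dispensed by acoustic transfer into modified Tris assay buffer.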

T1 sequence (O94782 whole entry): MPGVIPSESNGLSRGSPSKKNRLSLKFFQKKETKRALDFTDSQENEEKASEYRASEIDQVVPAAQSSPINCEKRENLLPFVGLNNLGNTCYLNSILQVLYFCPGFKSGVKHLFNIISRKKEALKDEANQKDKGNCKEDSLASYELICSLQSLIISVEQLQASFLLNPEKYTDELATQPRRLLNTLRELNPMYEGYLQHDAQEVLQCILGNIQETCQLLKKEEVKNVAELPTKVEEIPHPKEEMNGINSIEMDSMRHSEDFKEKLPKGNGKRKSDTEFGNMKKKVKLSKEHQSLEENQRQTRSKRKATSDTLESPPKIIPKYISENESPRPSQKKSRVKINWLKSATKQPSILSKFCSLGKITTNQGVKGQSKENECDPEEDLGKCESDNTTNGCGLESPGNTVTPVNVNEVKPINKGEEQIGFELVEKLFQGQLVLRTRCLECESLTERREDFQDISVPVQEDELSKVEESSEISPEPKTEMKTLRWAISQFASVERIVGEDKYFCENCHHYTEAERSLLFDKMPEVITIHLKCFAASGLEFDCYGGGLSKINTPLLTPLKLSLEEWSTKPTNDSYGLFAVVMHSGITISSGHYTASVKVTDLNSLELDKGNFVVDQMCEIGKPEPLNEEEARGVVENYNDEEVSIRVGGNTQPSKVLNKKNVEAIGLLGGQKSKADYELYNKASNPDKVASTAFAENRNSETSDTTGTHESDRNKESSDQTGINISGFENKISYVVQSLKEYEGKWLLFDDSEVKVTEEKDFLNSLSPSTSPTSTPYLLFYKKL
T1 sequence (Q8TAF3 whole entry partner): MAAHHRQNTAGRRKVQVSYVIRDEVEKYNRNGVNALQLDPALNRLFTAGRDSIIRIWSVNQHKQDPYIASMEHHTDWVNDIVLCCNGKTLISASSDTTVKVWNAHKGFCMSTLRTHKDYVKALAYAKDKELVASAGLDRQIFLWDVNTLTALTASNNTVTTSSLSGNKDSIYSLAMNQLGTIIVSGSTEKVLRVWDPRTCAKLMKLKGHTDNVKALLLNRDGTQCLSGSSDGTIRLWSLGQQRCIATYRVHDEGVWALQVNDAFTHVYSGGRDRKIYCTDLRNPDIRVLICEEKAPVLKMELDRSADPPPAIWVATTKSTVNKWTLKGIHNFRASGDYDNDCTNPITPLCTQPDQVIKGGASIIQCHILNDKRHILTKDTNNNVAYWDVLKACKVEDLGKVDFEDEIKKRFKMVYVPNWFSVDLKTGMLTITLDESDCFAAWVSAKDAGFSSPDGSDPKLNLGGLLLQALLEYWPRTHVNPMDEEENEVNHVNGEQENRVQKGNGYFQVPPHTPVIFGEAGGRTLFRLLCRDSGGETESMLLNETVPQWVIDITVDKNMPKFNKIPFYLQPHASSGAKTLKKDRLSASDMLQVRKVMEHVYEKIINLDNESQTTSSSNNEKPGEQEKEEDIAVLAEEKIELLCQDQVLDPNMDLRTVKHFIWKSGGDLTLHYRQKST

COc1cc(-c2nc(C(F)(F)F)cn2C)ccc1CNc1nc(-c2c(OC)ncnc2C2CC2)nc2ccoc12 [Example 119, 2-(4-Cyclopropyl-6-methoxypyrimidin-5-yl)-N-(2-methoxy-4-(1-methyl-4-(trifluoromethyl)-1H-imidazol-2-yl)benzyl)furo[3,2-d]pyrimidin-4-amine]
IC50 [1]: 0.0169 µM
IC50 [2]: 0.0076 µM

COc1cc(CNc2nc(-c3c(OC)ncnc3C3CC3)nc3ccoc23)ccc1-c1nc(C(F)(F)F)cn1C [Example 120, 2-(4-Cyclopropyl-6-methoxypyrimidin-5-yl)-N-(3-methoxy-4-(1-methyl-4-(trifluoromethyl)-1H-imidazol-2-yl)benzyl)furo[3,2-d]pyrimidin-4-amine]
IC50 [1]: 0.0505 µM
IC50 [2]: 0.0089 µM

COc1cc(-n2nc(C(F)(F)F)cc2C)ccc1CNc1nc(-c2c(OC)ncnc2C2CC2)nc2ccoc12 [Example 121, 2-(4-Cyclopropyl-6-methoxypyrimidin-5-yl)-N-(2-methoxy-4-(5-methyl-3-(trifluoromethyl)-1H-pyrazol-1-yl)benzyl)furo[3,2-d]pyrimidin-4-amine]
IC50 [1]: 0.0239 µM
IC50 [2]: 0.0083 µM

COc1cc(CNc2nc(-c3c(OC)ncnc3C3CC3)nc3ccoc23)ccc1-n1nc(C(F)(F)F)cc1C [Example 122, 2-(4-Cyclopropyl-6-methoxypyrimidin-5-yl)-N-(3-methoxy-4-(5-methyl-3-(trifluoromethyl)-1H-pyrazol-1-yl)benzyl)furo[3,2-d]pyrimidin-4-amine]
IC50 [1]: 0.0828 µM
IC50 [2]: 0.013 µM

COc1ncnc(C2CC2)c1-c1nc(NCc2ccc(-c3nc(C(F)F)cn3C)cc2)c2occc2n1 [Example 123, 2-(4-Cyclopropyl-6-methoxypyrimidin-5-yl)-N-(4-(4-(difluoromethyl)-1-methyl-1H-imidazol-2-yl)benzyl)furo[3,2-d]pyrimidin-4-amine]
IC50 [1]: 0.169 µM
IC50 [2]: 0.02 µM

COc1ncnc(C2CC2)c1-c1ncc(Cl)c(NCc2ccc(-c3nc(C(F)(F)F)cn3C)cc2)n1 [Example 124, 5-Chloro-4'-cyclopropyl-6'-methoxy-N-(4-(1-methyl-4-(trifluoromethyl)-1H-imidazol-2-yl)benzyl)-[2,5'-bipyrimidin]-4-amine]
IC50 [1]: 0.0132 µM
IC50 [2]: 0.0061 µM

COc1ncnc(C2CC2)c1-c1ncc(Cl)c(NCc2ccc(-c3nc(C(F)(F)F)cn3C3CC3)cc2)n1 [Example 125, 5-Chloro-4'-cyclopropyl-N-(4-(1-cyclopropyl-4-(trifluoromethyl)-1H-imidazol-2-yl)benzyl)-6'-methoxy-[2,5'-bipyrimidin]-4-amine]
IC50 [1]: 0.0005 µM
IC50 [2]: 0.0031 µM

COc1ncnc(C2CC2)c1-c1ncc(Cl)c(NCc2ccc(-c3nc(C(F)(F)F)cn3CF)cc2)n1 [Example 126, 5-Chloro-4'-cyclopropyl-N-(4-(1-(fluoromethyl)-4-(trifluoromethyl)-1H-imidazol-2-yl)benzyl)-6'-methoxy-[2,5'-bipyrimidin]-4-amine]
IC50 [1]: 0.0227 µM
IC50 [2]: 0.013 µM

COc1ncnc(C2CC2)c1-c1ncc(F)c(N(C)Cc2ccc(-c3nc(C(F)(F)F)cn3C(C)C)cc2)n1 [Example 127, 4'-Cyclopropyl-5-fluoro-N-(4-(1-isopropyl-4-(trifluoromethyl)-1H-imidazol-2-yl)benzyl)-6'-methoxy-N-methyl-[2,5'-bipyrimidin]-4-amine]
IC50 [1]: 0.0122 µM
IC50 [2]: 0.0042 µM

[2H]C([2H])([2H])N(Cc1ccc(-c2nc(C(F)(F)F)cn2C2CC2)cc1)c1nc(-c2c(OC)ncnc2C2CC2)ncc1F [Example 128, 4'-Cyclopropyl-N-(4-(1-cyclopropyl-4-(trifluoromethyl)-1H-imidazol-2-yl)benzyl)-5-fluoro-6'-methoxy-N-(methyl-d3)-[2,5'-bipyrimidin]-4-amine]
IC50 [1]: 0.0057 µM
IC50 [2]: 0.0026 µM

[2H]C([2H])([2H])N(Cc1ccc(-c2nc(C(F)(F)F)cn2C(C)C)cc1)c1nc(-c2c(OC)ncnc2C2CC2)ncc1F [Example 129, 4'-Cyclopropyl-5-fluoro-N-(4-(1-isopropyl-4-(trifluoromethyl)-1H-imidazol-2-yl)benzyl)-6'-methoxy-N-(methyl-d3)-[2,5'-bipyrimidin]-4-amine]
IC50 [1]: 0.0126 µM
IC50 [2]: 0.009 µM

[2H]C([2H])([2H])N(Cc1ccc(-c2nc(C(F)(F)F)cn2CF)cc1)c1nc(-c2c(OC)ncnc2C2CC2)ncc1F [Example 130, 4'-Cyclopropyl-5-fluoro-N-(4-(1-(fluoromethyl)-4-(trifluoromethyl)-1H-imidazol-2-yl)benzyl)-6'-methoxy-N-(methyl-d3)-[2,5'-bipyrimidin]-4-amine]
IC50 [1]: 0.0456 µM
IC50 [2]: 0.019 µM

COc1ncnc(C2CC2)c1-c1ncc(C#N)c(NCc2ccc(-c3nc(C(F)(F)F)cn3C)cc2)n1 [Example 131, 4'-Cyclopropyl-6'-methoxy-4-((4-(1-methyl-4-(trifluoromethyl)-1H-imidazol-2-yl)benzyl)amino)-[2,5'-bipyrimidine]-5-carbonitrile]
IC50 [1]: 0.0455 µM
IC50 [2]: 0.0074 µM

C#Cc1cnc(-c2c(OC)ncnc2C2CC2)nc1NCc1ccc(-c2nc(C(F)(F)F)cn2C)cc1 [Example 132, 4'-Cyclopropyl-5-ethynyl-6'-methoxy-N-(4-(1-methyl-4-(trifluoromethyl)-1H-imidazol-2-yl)benzyl)-[2,5'-bipyrimidin]-4-amine]
IC50 [1]: 0.0088 µM
IC50 [2]: 0.006 µM

COc1ncnc(C2CC2)c1-c1ncc(OC(F)F)c(NCC2CCN(c3nc(C(F)(F)F)cn3C)CC2)n1 [Example 133, 4'-Cyclopropyl-5-(difluoromethoxy)-6'-methoxy-N-((1-(1-methyl-4-(trifluoromethyl)-1H-imidazol-2-yl)piperidin-4-yl)methyl)-[2,5'-bipyrimidin]-4-amine]
IC50 [1]: 0.135 µM
IC50 [2]: 0.015 µM

COc1ncnc(C2CC2)c1-c1ncc(OC(F)F)c(NCc2ccc(-c3nc(C(F)(F)F)cn3C)cc2)n1 [Example 134, 4'-Cyclopropyl-5-(difluoromethoxy)-6'-methoxy-N-(4-(1-methyl-4-(trifluoromethyl)-1H-imidazol-2-yl)benzyl)-[2,5'-bipyrimidin]-4-amine]
IC50 [1]: 0.0341 µM
IC50 [2]: 0.0032 µM

COc1ncnc(C2CC2)c1-c1ncc(OC(F)F)c(NCc2ccc(-n3nc(C(F)(F)F)cc3C)cc2)n1 [Example 135, 4'-Cyclopropyl-5-(difluoromethoxy)-6'-methoxy-N-(4-(5-methyl-3-(trifluoromethyl)-1H-pyrazol-1-yl)benzyl)-[2,5'-bipyrimidin]-4-amine]
IC50 [1]: 0.0158 µM
IC50 [2]: 0.0032 µM

COc1cc(-c2nc(C(F)(F)F)cn2C)ccc1CNc1nc(-c2c(OC)ncnc2C2CC2)ncc1OC(F)F [Example 136, 4'-Cyclopropyl-5-(difluoromethoxy)-6'-methoxy-N-(2-methoxy-4-(1-methyl-4-(trifluoromethyl)-1H-imidazol-2-yl)benzyl)-[2,5'-bipyrimidin]-4-amine]
IC50 [1]: 0.0249 µM
IC50 [2]: 0.017 µM

COc1ncnc(C2CC2)c1-c1ncc(CO)c(NCc2ccc(-c3nc(C(F)(F)F)cn3C(C)C)cc2)n1 [Example 137, (4'-Cyclopropyl-4-((4-(1-isopropyl-4-(trifluoromethyl)-1H-imidazol-2-yl)benzyl)amino)-6'-methoxy-[2,5'-bipyrimidin]-5-yl)methanol]
IC50 [1]: 0.216 µM
IC50 [2]: 0.024 µM

COCc1cnc(-c2c(OC)ncnc2C2CC2)nc1N(C)Cc1ccc(-c2nc(C(F)(F)F)cn2C(C)C)cc1 [Example 138, 4'-Cyclopropyl-N-(4-(1-isopropyl-4-(trifluoromethyl)-1H-imidazol-2-yl)benzyl)-6'-methoxy-5-(methoxymethyl)-N-methyl-[2,5'-bipyrimidin]-4-amine]
IC50 [1]: 0.0124 µM
IC50 [2]: 0.009 µM

C#CCN(Cc1ccc(-c2nc(C(F)(F)F)cn2C)cc1)c1nc(-c2c(OC)ncnc2C2CC2)ncc1OC [Example 139, 4'-Cyclopropyl-5,6'-dimethoxy-N-(4-(1-methyl-4-(trifluoromethyl)-1H-imidazol-2-yl)benzyl)-N-(prop-2-yn-1-yl)-[2,5'-bipyrimidin]-4-amine]
IC50 [1]: 0.005 µM
IC50 [2]: 0.0052 µM

COc1cnc(-c2c(OC)ncnc2C2CC2)nc1N(Cc1ccc(-c2nc(C(F)(F)F)cn2C)cc1)C1CC1 [Example 141, N,4'-Dicyclopropyl-5,6'-dimethoxy-N-(4-(1-methyl-4-(trifluoromethyl)-1H-imidazol-2-yl)benzyl)-[2,5'-bipyrimidin]-4-amine]
IC50 [1]: 0.0767 µM
IC50 [2]: 0.0095 µM

COc1cnc(-c2c(OC)ncnc2C2CC2)nc1N(Cc1ccc(-c2nc(C(F)(F)F)cn2C)cc1)OC [Example 142, N-(4'-Cyclopropyl-5,6'-dimethoxy-[2,5'-bipyrimidin]-4-yl)-O-methyl-N-(4-(1-methyl-4-(trifluoromethyl)-1H-imidazol-2-yl)benzyl)hydroxylamine]
IC50 [1]: 0.05 µM
IC50 [2]: 0.025 µM

COc1cnc(-c2cccc3c2N(C)CC3)nc1NCc1ccc(-c2nc(C(F)(F)F)cn2C)cc1 [Example 145, 5-Methoxy-N-(4-(1-methyl-4-(trifluoromethyl)-1H-imidazol-2-yl)benzyl)-2-(1-methylindolin-7-yl)pyrimidin-4-amine]
IC50 [1]: 0.731 µM
IC50 [2]: 0.019 µM

COc1cnc(-c2cccnc2C2CC2)nc1N(C)CC1CCN(c2ccccn2)CC1 [Example 151, 2-(2-Cyclopropylpyridin-3-yl)-5-methoxy-N-methyl-N-((1-(pyridin-2-yl)piperidin-4-yl)methyl)pyrimidin-4-amine]
IC50 [1]: 0.0584 µM
IC50 [2]: 0.072 µM

COc1cnc(-c2cccnc2C2CC2)nc1NCC1CCN(c2nc(C(F)(F)F)cn2C)CC1 [Example 152, 2-(2-Cyclopropylpyridin-3-yl)-5-methoxy-N-((1-(1-methyl-4-(trifluoromethyl)-1H-imidazol-2-yl)piperidin-4-yl)methyl)pyrimidin-4-amine]
IC50 [1]: 0.0644 µM
IC50 [2]: 0.0075 µM
